These results are taken from US20060173015A1, “Cyclohexyldiamines as selective alpha 1a/1d adrenoreceptor antagonists for the treatment of benign prostatic hypertrophy and lower urinary tract symptoms” (priority 2004, published 2006).

Structures are written as SMILES.

One test concerns the target T1, α1d-AR (Homo sapiens, UniProt P25100).
T1 construct: expressed in transfected cells; host or cells: COS-7
T1 sequence (P25100 1-572): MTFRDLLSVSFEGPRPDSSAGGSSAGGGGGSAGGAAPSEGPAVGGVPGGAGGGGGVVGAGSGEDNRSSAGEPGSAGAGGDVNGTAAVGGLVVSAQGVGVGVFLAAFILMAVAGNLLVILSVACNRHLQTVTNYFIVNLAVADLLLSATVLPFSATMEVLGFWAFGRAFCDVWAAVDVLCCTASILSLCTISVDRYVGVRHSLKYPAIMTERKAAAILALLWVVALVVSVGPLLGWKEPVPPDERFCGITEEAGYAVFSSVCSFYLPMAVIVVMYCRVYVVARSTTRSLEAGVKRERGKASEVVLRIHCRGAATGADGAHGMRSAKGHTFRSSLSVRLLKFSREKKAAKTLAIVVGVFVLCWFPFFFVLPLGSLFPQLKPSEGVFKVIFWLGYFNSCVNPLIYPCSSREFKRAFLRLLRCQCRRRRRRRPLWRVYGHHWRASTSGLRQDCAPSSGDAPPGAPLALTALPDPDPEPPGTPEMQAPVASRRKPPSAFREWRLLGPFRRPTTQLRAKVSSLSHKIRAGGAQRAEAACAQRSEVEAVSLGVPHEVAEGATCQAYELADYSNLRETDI
Kind of test: α1-Adrenergic receptor radio-ligand (125I-HEAT) binding assay, α1d subtype. To be noted: COS-7 cell membranes, 125I-HEAT; read-out: Receptor Binding, Ki α1d-AR.

The target in another test is T2, α1a-AR (Homo sapiens, UniProt P35348).
T2 construct: expressed in transfected cells; host or cells: COS-7
T2 sequence (P35348 1-466): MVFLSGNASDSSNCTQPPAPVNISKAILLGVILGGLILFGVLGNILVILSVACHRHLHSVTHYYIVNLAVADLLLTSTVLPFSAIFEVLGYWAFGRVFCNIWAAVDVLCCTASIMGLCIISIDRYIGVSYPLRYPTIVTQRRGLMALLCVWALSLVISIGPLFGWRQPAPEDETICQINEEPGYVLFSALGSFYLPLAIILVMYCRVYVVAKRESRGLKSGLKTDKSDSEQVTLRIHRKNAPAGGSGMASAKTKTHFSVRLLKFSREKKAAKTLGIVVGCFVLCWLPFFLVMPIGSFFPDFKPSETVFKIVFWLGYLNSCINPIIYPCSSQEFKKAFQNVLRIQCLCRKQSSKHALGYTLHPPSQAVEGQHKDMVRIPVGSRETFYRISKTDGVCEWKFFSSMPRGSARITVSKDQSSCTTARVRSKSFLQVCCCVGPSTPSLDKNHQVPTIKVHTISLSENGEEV
Kind of test: α1-Adrenergic receptor radio-ligand (125I-HEAT) binding assay, α1a subtype. The conditions noted are these: COS-7 cell membranes, 125I-HEAT. As to the method: α1-Adrenergic Receptor Binding Assay: Preparation of COS Cell Membranes
Membranes were prepared from COS-7 cells that had been transfected with one of the three α1-AR subtypes by the following method. COS cells from ten 100 mm tissue culture plates were scraped into 5 mL TE (50 mM Tris-HCl, 5 mM EDTA, pH 7.4). The cell suspension was disrupted with a Brinkman Polytron, setting 8, for 10 sec. The disrupted cells were centrifuged at 1000×g for 10 min at 4° C. Supernatants were centrifuged at 34,500×g for 20 min at 4° C. The membrane pellets were suspended in 2 mL TNE (50 mM Tris-HCl, 5 mM EDTA, 150 mM NaCl, pH7.4). An aliquot of the membrane suspension was stored at −70° C. until use. The protein concentration was determined using the BioRad DC protein assay kit following membrane solubilization with Triton X-100.
Radio-Ligand Binding Assay
Triplicate determinations of radio-ligand binding in the presence of increasing: concentrations of testing compound were made. The reagents were added to 96-well polypropylene plate wells using the Biomek 1000 robot (Beckman Instruments). Each assay well contained 140 μl TNE, 25 μL ^125I-HEAT (specific activity 2200 Ci/mmol, Dupont-NEN, 50 pM final), 10 μL testing compound dissolved in DMSO (1 pM to 10 μM in half-log increments, final), and 25 μL appropriate α1-AR membrane subtype suspension in TNE (0.5 ng/μL for the α1a and α1b subtypes and 13 ng/μL for the α1d subtype). The plate was incubated at rt for 1 hr. The contents of the wells were filtered through a GF/C membrane Unifilter plate (Packard Instruments) using the Packard Filtermate cell harvester. The filter plates were dried in a vacuum oven for 30 min at 40° C. 25 μL Microscint 20 liquid scintillation fluid (Packard Instuments) was added to each well. The radioactive content was analyzed in the TopCount microplate scintillation counter (Packard Instruments).

Another test deals with T3, α1b-AR (Homo sapiens, UniProt P35368).
T3 sequence (P35368 1-520): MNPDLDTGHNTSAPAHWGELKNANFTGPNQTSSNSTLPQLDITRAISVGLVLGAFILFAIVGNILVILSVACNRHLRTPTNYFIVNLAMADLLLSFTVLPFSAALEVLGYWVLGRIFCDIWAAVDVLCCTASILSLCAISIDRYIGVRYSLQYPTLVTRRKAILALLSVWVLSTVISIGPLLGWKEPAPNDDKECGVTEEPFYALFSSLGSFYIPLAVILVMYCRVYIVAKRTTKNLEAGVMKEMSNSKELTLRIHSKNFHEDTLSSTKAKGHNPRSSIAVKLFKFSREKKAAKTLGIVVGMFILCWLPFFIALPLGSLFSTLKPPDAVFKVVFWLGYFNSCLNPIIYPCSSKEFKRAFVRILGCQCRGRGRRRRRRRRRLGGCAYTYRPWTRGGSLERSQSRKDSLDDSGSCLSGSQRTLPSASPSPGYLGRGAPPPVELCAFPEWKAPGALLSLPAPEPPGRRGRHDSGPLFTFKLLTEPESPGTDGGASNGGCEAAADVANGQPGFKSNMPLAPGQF
Kind of test: α1-Adrenergic receptor radio-ligand (125I-HEAT) binding assay, α1b subtype. The conditions noted are these: Receptor Binding, Ki α1b-AR, COS-7 cell membranes, 125I-HEAT.

For `Cc1ccc(S(=O)(=O)N[C@H]2CC[C@H](N3CCN(c4ccccc4OC(C)C)CC3)CC2)cc1Cl` [Cpd 46, 3-Chloro-N-trans-{4-[4-(2-isopropoxy-phenyl)-piperazin-1-yl]-cyclohexyl}-4-methyl-benzenesulfonamide], the Ki on α1d-AR is 16 nM; on α1a-AR it was 1.5 nM; at α1b-AR, 193 nM.

For the molecule `COc1ccc([N+](=O)[O-])cc1S(=O)(=O)N[C@H]1CC[C@H](N2CCN(c3ccccc3OC(C)C)CC2)CC1` [Cpd 47, N-trans-{4-[4-(2-Isopropoxy-phenyl)-piperazin-1-yl]-cyclohexyl}-2-methoxy-5-nitro-benzenesulfonamide], the Ki at α1d-AR came out at 22 nM; on α1a-AR, 1 nM; at α1b-AR, 173 nM.

With `COc1ccc(C(F)(F)F)cc1S(=O)(=O)N[C@H]1CC[C@H](N2CCN(c3ccccc3OC(C)C)CC2)CC1` [Cpd 48, N-trans-{4-[4-(2-Isopropoxy-phenyl)-piperazin-1-yl]-cyclohexyl}-2-methoxy-5-trifluoromethyl-benzenesulfonamide], the inhibition constant Ki at α1d-AR was found to be 1.5 nM; on α1a-AR it was 24.5 nM; at α1b-AR, 258 nM.

`CC(C)Oc1ccccc1N1CCN([C@H]2CC[C@H](NS(=O)(=O)c3cccc(F)c3)CC2)CC1` [Cpd 50, 3-Fluoro-N-trans-{4-[4-(2-isopropoxy-phenyl)-piperazin-1-yl]-cyclohexyl}-benzenesulfonamide]: the Ki at α1d-AR stood at 24.5 nM; on α1a-AR, 0.73 nM; at α1b-AR it was 545 nM.

In the case of `CC(C)Oc1ccccc1N1CCN([C@H]2CC[C@H](NS(=O)(=O)c3ccccc3)CC2)CC1` [Cpd 53], the figures for the Ki on α1d-AR, on α1a-AR and at α1b-AR were 55 nM, 2.7 nM and 487 nM, respectively.

`CC(C)Oc1ccccc1N1CCN([C@H]2CC[C@H](NS(=O)(=O)c3ccccc3[N+](=O)[O-])CC2)CC1` [Cpd 54]: the Ki at α1d-AR came to 27 nM; at α1a-AR, 1 nM; on α1b-AR, 236 nM.

Consider `CC(C)Oc1ccccc1N1CCN([C@H]2CC[C@@H](NS(=O)(=O)Cc3ccccc3)CC2)CC1` [Cpd 57, N-cis-{4-[4-(2-Isopropoxy-phenyl)-piperazin-1-yl]-cyclohexyl}-C-phenyl-methanesulfonamide], for which the Ki at α1d-AR was 3.6 nM; at α1a-AR, 1.2 nM; on α1b-AR it was 82 nM.

As to `CC(C)Oc1ccccc1N1CCN([C@H]2CC[C@@H](NS(=O)(=O)c3cccc4cccnc34)CC2)CC1` [Cpd 58, Quinoline-8-sulfonic acid N-cis-{4-[4-(2-isopropoxy-phenyl)-piperazin-1-yl]-cyclohexyl}-amide], the results for the inhibition constant Ki on α1d-AR, on α1a-AR and at α1b-AR were 4.3 nM, 8.3 nM and 116 nM, respectively.

For `CC(C)Oc1ccccc1N1CCN([C@H]2CC[C@@H](NS(=O)(=O)c3cccnc3)CC2)CC1` [Cpd 59, Pyridine-3-sulfonic acid N-cis-{4-[4-(2-isopropoxy-phenyl)-piperazin-1-yl]-cyclohexyl}-amide], the inhibitory constant (Ki) on α1d-AR came out at 46 nM; at α1a-AR it was 5 nM; on α1b-AR, 400 nM.

For the molecule `COc1ccncc1S(=O)(=O)N[C@H]1CC[C@@H](N2CCN(c3ccccc3OC(C)C)CC2)CC1` [Cpd 60, 4-Methoxy-pyridine-3-sulfonic acid N-cis-{4-[4-(2-isopropoxy-phenyl)-piperazin-1-yl]-cyclohexyl}-amide], the inhibition constant Ki on α1d-AR was 9.4 nM; at α1a-AR, 4.9 nM; on α1b-AR it was 169 nM.

`CC(C)Oc1ccccc1N1CCN([C@H]2CC[C@@H](NS(=O)(=O)c3cnc(Cl)c(Br)c3)CC2)CC1` [Cpd 61, 5-Bromo-6-chloro-pyridine-3-sulfonic acid N-cis-{4-[4-(2-isopropoxy-phenyl)-piperazin-1-yl]-cyclohexyl}-amide]: the Ki worked out at 0.14 nM at α1d-AR, 14.4 nM at α1a-AR and 125 nM on α1b-AR.

On to `CC(C)Oc1ccccc1N1CCN([C@H]2CC[C@H](NS(=O)(=O)Cc3ccccc3)CC2)CC1` [Cpd 62, N-trans-{4-[4-(2-Isopropoxy-phenyl)-piperazin-1-yl]-cyclohexyl}-C-phenyl-methanesulfonamide], for which the Ki at α1d-AR was found to be 12 nM; on α1a-AR it was 3.9 nM; on α1b-AR, 200 nM.

With `CC(C)Oc1ccccc1N1CCN([C@H]2CC[C@H](NS(=O)(=O)c3cccc4cccnc34)CC2)CC1` [Cpd 63, Quinoline-8-sulfonic acid N-trans-{4-[4-(2-isopropoxy-phenyl)-piperazin-1-yl]-cyclohexyl}-amide], the Ki on α1d-AR stood at 22.1 nM; on α1a-AR, 0.5 nM; at α1b-AR it was 77.6 nM.

As to `CC(C)Oc1ccccc1N1CCN([C@H]2CC[C@H](NS(=O)(=O)c3cccnc3)CC2)CC1` [Cpd 64, Pyridine-3-sulfonic acid N-trans-{4-[4-(2-isopropoxy-phenyl)-piperazin-1-yl]-cyclohexyl}-amide], the inhibitory constant (Ki) is 5.5 nM on α1d-AR, 5.8 nM at α1a-AR and 192 nM at α1b-AR.

In the case of `COc1ccncc1S(=O)(=O)N[C@H]1CC[C@H](N2CCN(c3ccccc3OC(C)C)CC2)CC1` [Cpd 65, 4-Methoxy-pyridine-3-sulfonic acid N-trans-{4-[4-(2-isopropoxy-phenyl)-piperazin-1-yl]-cyclohexyl}-amide], the results for the Ki on α1d-AR, at α1a-AR and on α1b-AR were 76 nM, 13.4 nM and 268 nM, respectively.

In the case of `CC(C)Oc1ccccc1N1CCN([C@H]2CC[C@H](NS(=O)(=O)c3cnc(Cl)c(Br)c3)CC2)CC1` [Cpd 66, 5-Bromo-6-chloro-pyridine-3-sulfonic acid N-trans-{4-[4-(2-isopropoxy-phenyl)-piperazin-1-yl]-cyclohexyl}-amide], the Ki at α1d-AR was 14.6 nM; at α1a-AR it was 3.5 nM; at α1b-AR it was 279 nM.

As for `CCN([C@H]1CC[C@@H](N2CCN(c3ccccc3OC(C)C)CC2)CC1)S(=O)(=O)c1ccc(OC)c(OC)c1` [Cpd 67, N-Ethyl-N-cis-{4-[4-(2-isopropoxy-phenyl)-piperazin-1-yl]-cyclohexyl}-3,4-dimethoxy-benzenesulfonamide], the inhibition constant Ki is 22 nM on α1d-AR, 15 nM at α1a-AR and 326 nM on α1b-AR.
